Publication PMC11390765 (Cancer Chemotherapy and Pharmacology, 2024)
Marks after values point to notes of the source that are not given here.

Key:
[1] = Plasma pharmacokinetics of capivasertib and its glucuronide metabolite; format: in vivo, human; conditions: for Ctrough cycle 1, day 13: 12 h post day 12 capivasertib evening dose; for Ctrough cycle 1, day 9: after 3 off-capivasertib-dosing days; for tmax: median (range)
advanced solid tumors = experiment: Exploratory efficacy (RECIST 1.1, investigator assessment); format: in vivo, human; conditions: capivasertib 400 mg BID 4 days on/3 days off
Procedure: Efficacy was evaluated as an exploratory endpoint by investigator assessment, and per Response Evaluation Criteria in Solid Tumors (RECIST) version 1.1. Tumor assessments were performed by CT and/or MRI scans at screening and then every 8 weeks (± 7 days; earlier if clinically indicated) for 2 years, and then every 12 weeks until disease progression. Radiographic bone scans were performed at screening and repeated as clinically indicated, depending on tumor type.
Safety analyses were performed on the full analysis set, which consisted of all patients who received at least one dose of midazolam and/or capivasertib, irrespective of protocol adherence or continued participation in the study. Efficacy analyses were also performed on the full analysis set. Summary and/or descriptive statistics were used to analyze baseline demographic, safety, and efficacy data; PFS and DoR were estimated using Kaplan–Meier methodology.

[2] = geometric mean (gCV%), listed as Capivasertib

NC1(C(=O)N[C@@H](CCO)c2ccc(Cl)cc2)CCN(c2nc[nH]c3nccc2-3)CC1 [capivasertib]
AUCτ ([1]; geometric mean (gCV%), 12-h dosing interval, day 12 of cycle 1, capivasertib 400 mg BID): 8499 ng·h/mL | Ctrough cycle 1, day 13 ([1]; geometric mean (gCV%)): 281.5 ng/mL | Ctrough cycle 1, day 13 [1, 2]: 281.5^f (53.3) ng/mL | Ctrough cycle 1, day 9 ([1]; geometric mean (gCV%)): 10.96 ng/mL | Ctrough cycle 1, day 9 [1, 2]: 10.96^e (137.0) ng/mL | Cmax ([1]; geometric mean (gCV%), day 12 of cycle 1, 4th day on capivasertib 400 mg BID, with single oral midazolam 1 mg): 1779 ng/mL | t½λz ([1]; geometric mean (gCV%), day 12 of cycle 1, capivasertib 400 mg BID): 3.76 h | CL/F ([1]; geometric mean (gCV%), day 12 of cycle 1, capivasertib 400 mg BID oral): 46.4 L/h | tmax ([1]; day 12 of cycle 1, capivasertib 400 mg BID): 1.5 h | tmax ([1]; day 12 of cycle 1, capivasertib 400 mg BID, listed as Capivasertib): 1.48^a (0.6–5.5) h | Median DoR (95% CI) (advanced solid tumors): 3.8 months | patients with confirmed partial response to treatment (advanced solid tumors): Two | CBR (95% CI) at 24 weeks (advanced solid tumors; full analysis set): 14.3% | ORR (95% CI) (advanced solid tumors; full analysis set): 9.5% | median PFS (95% CI) (advanced solid tumors; full analysis set, 15 PFS events): 3.4 months
